For the assay, the target named is T1, Recombinant human farnesyl transferase (FTase) (Homo sapiens, UniProt P49356).
T1 construct: purchased Crelux (Martinsried, Germany)
Kind of assay: FTase fluorescence assay (farnesylation of dansyl-GCVLS peptide). The assay is classed as biochemical. The settings on record: recombinant human FTase 2.5 nM, Dansyl-GCVLS 85 nM, FPP 30 nM, 30° C., 50 minutes.

Each structure is given as a SMILES string.

Turning to `Cn1cncc1C1(O)c2ccc(C#N)c(c2)OCc2cccc(c2)-c2cc(=O)[nH]c3ccc1cc23` (centres unmarked) [Compound 17, 3-hydroxy-3-(1-methyl-1H-imidazol-5-yl)-2^2-oxo-2^1,2^2-dihydro-5-oxa-2(4,6)-quinolina-1,4(1,3)-dibenzenacyclohexaphane-4^4-carbonitrile], the IC50 was not above 10 nM.

Regarding `Cn1cnnc1C1(O)c2ccc(Cl)c(c2)OCCc2cccc(c2)-c2cc(=O)[nH]c3ccc1cc23` (centres unmarked) [Compound 31, 4^4-chloro-3-hydroxy-3-(4-methyl-4H-1,2,4-triazol-3-yl)-2^1,2^2-dihydro-5-oxa-2(4,6)-quinolina-1,4(1,3)-dibenzenacycloheptaphan-2^2-one], the half-maximal inhibitory concentration (IC50) was in the range of 10 to 100 nM.

With `[2H]C([2H])([2H])n1c(=O)cc2c3cc(ccc31)C(O)(c1nncn1C)c1ccc(Cl)c(c1)OCCc1cccc-2c1` (centres unmarked) [Compound 32, 4^4-chloro-3-hydroxy-2^1-(methyl-d3)-3-(4-methyl-4H-1,2,4-triazol-3-yl)-2^1,2^2-dihydro-5-oxa-2(4,6)-quinolina-1,4(1,3)-dibenzenacycloheptaphan-2^2-one], the 50% inhibitory concentration (IC50) lay within 10 to 100 nM.

For `[2H]C([2H])([2H])OC1(c2nncn2C)c2ccc(Cl)c(c2)OCCc2cccc(c2)-c2cc(=O)n(C([2H])([2H])[2H])c3ccc1cc23` (centres unmarked) [Compound 33, 4^4-chloro-3-(methoxy-d3)-2^1-(methyl-d3)-3-(4-methyl-4H-1,2,4-triazol-3-yl)-2^1,2^2-dihydro-5-oxa-2(4,6)-quinolina-1,4(1,3)-dibenzenacycloheptaphan-2^2-one], the half-inhibitory concentration (IC50) is 10 to 100 nM.

As for `Cn1cnnc1C1(O)c2ccc(C#N)c(c2)OCCc2cccc(c2)-c2cc(=O)n(C)c3ccc1cc23` (centres unmarked) [Compound 38, 3-hydroxy-2^1-methyl-3-(4-methyl-4H-1,2,4-triazol-3-yl)-2^2-oxo-2^1,2^2-dihydro-5-oxa-2(4,6)-quinolina-1,4(1,3)-dibenzenacycloheptaphane-4^4-carbonitrile], the IC50 is not above 10 nM.

Turning to `CNC1(c2nncn2C)c2ccc(Cl)c(c2)COc2cccc(c2)-c2cc(=O)n(C)c3ccc1cc23` (centres unmarked) [Compound 50, 4^4-chloro-2^1-methyl-3-(4-methyl-4H-1,2,4-triazol-3-yl)-3-(methylamino)-2^1,2^2-dihydro-6-oxa-2(4,6)-quinolina-1,4(1,3)-dibenzenacyclohexaphan-2^2-one], the IC50 is not above 10 nM.

Regarding `COc1cc2c3cc(ccc3n1)C(O)(c1cncn1C)c1ccc(C#N)c(c1)COc1cccc-2c1` (centres unmarked) [Compound 53, 3-hydroxy-2^2-methoxy-3-(1-methyl-1H-imidazol-5-yl)-6-oxa-2(4,6)-quinolina-1,4(1,3)-dibenzenacyclohexaphane-4^4-carbonitrile], the half-inhibitory concentration (IC50) is not above 10 nM.

With `Cn1cncc1C1(O)c2ccc(C#N)c(c2)COc2cccc(c2)-c2cc(=O)[nH]c3ccc1cc23` (centres unmarked) [Compound 54, 3-hydroxy-3-(1-methyl-1H-imidazol-5-yl)-2^2-oxo-2^1,2^2-dihydro-6-oxa-2(4,6)-quinolina-1,4(1,3)-dibenzenacyclohexaphane-4^4-carbonitrile], the IC50 was not above 10 nM.

Consider `Cn1cncc1C1(O)c2cccc(c2)CCOc2cccc(c2)-c2cc(=O)n(C)c3ccc1cc23` (centres unmarked) [Compound 63, 3-hydroxy-2^1-methyl-3-(1-methyl-1H-imidazol-5-yl)-2^1,2^2-dihydro-7-oxa-2(4,6)-quinolina-1,4(1,3)-dibenzenacycloheptaphan-2^2-one], for which the concentration for half-maximal inhibition (IC50) lay within 10 to 100 nM.

Consider `COc1cc2c3cc(ccc3n1)C(O)(c1cncn1C)c1ccc(Cl)c(c1)CCOc1cccc-2c1` (centres unmarked) [Compound 64, 4^4-chloro-2^2-methoxy-3-(1-methyl-1H-imidazol-5-yl)-7-oxa-2(4,6)-quinolina-1,4(1,3)-dibenzenacycloheptaphan-3-ol], for which the half-inhibitory concentration (IC50) was more than 100 nM.

For `Cn1cncc1C1(N)c2ccc(C#N)c(c2)COc2cccc(c2)-c2cc(N3CCNCC3)nc3ccc1cc23` (centres unmarked) [Compound 67, 3-amino-3-(1-methyl-1H-imidazol-5-yl)-2^2-(piperazin-1-yl)-6-oxa-2(4,6)-quinolina-1,4(1,3)-dibenzenacyclohexaphane-4^4-carbonitrile], the 50% inhibitory concentration (IC50) was in the range of 10 to 100 nM.

In the case of `Cn1cncc1C1(N)c2ccc(C#N)c(c2)COc2cccc(c2)-c2cc(NC3COC3)nc3ccc1cc23` (centres unmarked) [Compound 68, 3-amino-3-(1-methyl-1H-imidazol-5-yl)-2^2-(oxetan-3-ylamino)-6-oxa-2(4,6)-quinolina-1,4(1,3)-dibenzenacyclohexaphane-4^4-carbonitrile], the IC50 fell in the range of 10 to 100 nM.

With `Cn1cncc1C1(N)c2ccc(Br)c(c2)COc2cccc(c2)-c2cc(Cl)nc3ccc1cc23` (centres unmarked) [Compound 74, 4^4-bromo-2^2-chloro-3-(1-methyl-1H-imidazol-5-yl)-6-oxa-2(4,6)-quinolina-1,4(1,3)-dibenzenacyclohexaphan-3-amine], the IC50 is 10 to 100 nM.

With `Cn1cncc1C1(N)c2ccc(Br)c(c2)COc2cccc(c2)-c2cc(OC3COC3)nc3ccc1cc23` (centres unmarked) [Compound 75, 4^4-bromo-3-(1-methyl-1H-imidazol-5-yl)-2^2-(oxetan-3-yloxy)-6-oxa-2(4,6)-quinolina-1,4(1,3)-dibenzenacyclohexaphan-3-amine], the concentration for half-maximal inhibition (IC50) was more than 100 nM.

With `Cn1cncc1C1(N)c2ccc(Br)c(c2)COc2cccc(c2)-c2nc(N)nc3ccc1cc23` (centres unmarked) [Compound 82, 4^4-bromo-3-(1-methyl-1H-imidazol-5-yl)-6-oxa-2(4,6)-quinazolina-1,4(1,3)-dibenzenacyclohexaphane-2^2,3-diamine], the IC50 was not above 10 nM.

With `Cn1cncc1C1(O)c2ccc(Br)c(c2)COc2cccc(c2)-c2cncc3ccc1cc23` (centres unmarked) [Compound 83, 4^4-bromo-3-(1-methyl-1H-imidazol-5-yl)-6-oxa-2(4,6)-isoquinolina-1,4(1,3)-dibenzenacyclohexaphan-3-ol], the half-maximal inhibitory concentration (IC50) was not above 10 nM.

As to `Cn1cncc1C1(O)c2ccc(Br)c(c2)COc2cccc(c2)-c2nccc3ccc1cc23` (centres unmarked) [Compound 84, 4^4-bromo-3-(1-methyl-1H-imidazol-5-yl)-6-oxa-2(1,7)-isoquinolina-1,4(1,3)-dibenzenacyclohexaphan-3-ol], the half-maximal inhibitory concentration (IC50) is 10 to 100 nM.

On to `Cn1cncc1C1(O)c2ccc(C#N)c(c2)COc2cccc(c2)-c2nccc3ccc1cc23` (centres unmarked) [Compound 85, 3-hydroxy-3-(1-methyl-1H-imidazol-5-yl)-6-oxa-2(1,7)-isoquinolina-1,4(1,3)-dibenzenacyclohexaphane-4^4-carbonitrile], for which the IC50 was in the range of 10 to 100 nM.

On to `COc1cc2c3cc(cnc3c1)C(O)(c1cncn1C)c1ccc(Br)c(c1)COc1cccc-2c1` (centres unmarked) [Compound 87, 4^4-bromo-2^7-methoxy-3-(1-methyl-1H-imidazol-5-yl)-6-oxa-2(5,3)-quinolina-1,4(1,3)-dibenzenacyclohexaphan-3-ol], for which the IC50 was more than 100 nM.

Turning to `COc1cc2c3cc(cnc3c1)C(O)(c1cncn1C)c1ccc(C#N)c(c1)COc1cccc-2c1` (centres unmarked) [Compound 88, 3-hydroxy-2^7-methoxy-3-(1-methyl-1H-imidazol-5-yl)-6-oxa-2(5,3)-quinolina-1,4(1,3)-dibenzenacyclohexaphane-4^4-carbonitrile], the concentration for half-maximal inhibition (IC50) was not above 10 nM.

In general, IC50 refers to the midpoint of a concentration-inhibition curve.

The record behind these values is US12018011B2, “Macrocyclic compounds and compositions, and methods of preparing and using the same” (Kura Oncology, Inc., priority 2021, dated 2024).
